Reference: patent US11505556B2, “Halogenated derivatives of morphinans and uses thereof” (Xalud Therapeutics, Inc., priority 2017, dated 2022)

Key:
[1] = test system: bone fracture pain, paw withdrawal threshold; test: Mouse bone fracture model, morphine potentiation
From the text: Male adult C57BL6 mice, 8-10 weeks old, were anaesthetized with isoflurane mixed with oxygen throughout the surgical procedure. Animals were placed on a thermo-blanket temperature control system. The left knee area was disinfected with povidone/iodine-soaked cotton. A 0.5 cm incision was made on the knee, exposing the front area of the knee. A 27-gauge sterile needle was inserted into the tibial bone medullar canal to secure the fractured bone. The left tibia bone was gently broken using a pair of cushioned pliers. A single dose of antibiotic (Amoxipen 100 mg/kg, IP) was administered for prevention of infection after surgery. The animal was placed in a temperature-controlled recovery chamber until fully awake before being placed in a plastic cage bedded with clean, soft sawdust, with food and water easily accessible. The condition of the animals was closely monitored and recorded. All compounds, dissolved in normal saline, were dosed intraperitoneally in a volume of 5 ml/kg. PWT testing, as described above, was performed at 1, 2, and 4 hours.
In both cases, morphine was dosed at 2 mg/kg IP.

[2] = test system: TLR4 (LPS-stimulated NO production, BV-2 mouse microglia cell line); test: NO assay: inhibition of LPS-induced NO production in BV-2 microglia (iNOS cellular); format: cell-based; details: for inhibition of NO production from LPS-stimulated BV2 cells: FIGS. 8B to 8D
From the text: NO assay: Microglia are the resident cells of the innate immune system in the central nervous system, and TLR4 is primarily expressed by microglia rather than astrocytes or neurons in the CNS. Given this expression profile, the BV-2 mouse microglia cell line was used as the model system of microglia, as these cells recapitulate many of the responses of primary microglia with high fidelity. TLR4 activation induces the downstream production of the inflammatory factor NO, which contributes to the development of neuropathic pain and drug addiction. BV-2 murine microglia were grown in supplemented DMEM (including 10% FBS, 50 unit mL^−1 penicillin, 50 μg·mL^−1 streptomycin). BV-2 cells were detached from the flask by trypsin digestion when ˜80% confluence was reached. Cells were seeded at a density of 4×10^4 cells per well in 96-well plates. After overnight incubation, media was aspirated and changed to DMEM media without FBS. Cells were then treated with LPS (200 ng/ml) and different concentrations of the testing compounds. After 24 h treatment, 100 μL of supernatant media was removed after cells were treated for 24 h and added to flat black 96-well microfluor plates (Thermo Scientific, MA, USA). Subsequently, 10 μL of 2, 3-diaminonaphthalene (0.05 mg·mL^−1 in 0.62 M HCl) was added to each well and incubated for 15 min. The reaction was quenched by addition of 5 μL of 3 M NaOH and the plate was read on a Beckman Coulter DTX880 reader (Fullerton, Calif., USA) with excitation at 360 nm and emission at 430 nm.
N chain NTX: This experimentation involved an in vitro assay where mouse BV2 cells were treated with LPS, which results in the release of nitric oxide (NO). Blockade of TLR4 activity results in reduced NO production. Therefore, IC50 values were determined for test compounds that antagonize TLR4 activity. A series of test compounds were prepared, with different N-alkyl chains replacing the cyclopropyl methyl found in naltrexone. Cell viability was also measured by a standard assay, e.g., measurement of the release of cytoplasm-resident enzymes in the tissue culture supernatant or media to detect cell loss/lysis/rupture. A dose-inhibition curve was generated by testing the TLR4 antagonist compound for the ability to block LPS-stimulated iNOs induction. In FIG. 7, the inhibition levels across a range of doses are graphed, along with a regression curve. The IC50 value—50% inhibition level—is also provided, graphed against the length of the alkyl chain. Note that with longer N-alkyl chain the IC50 was reduced, although cell viability became problematic.
FIGS. 8B to 8D show the results of the inhibition of NO production from LPS-stimulated BV2 cells using the assay described above.

[3] = test system: bone fracture pain, paw withdrawal threshold; test: Mouse bone fracture model, intraperitoneal; format: in vivo; details: for effect on PWT in mouse fracture pain model: IP, morphine 1, 2, 3, 5 mg/kg, XT-203 6, 10, 18, 30 mg/kg, (+)-NTX 6, 18, 30, 60 mg/kg, dose-dependent; for adverse effects during observation: mouse fracture model, all dose groups
From the text: Each group had n=10 mice.

Mouse hepatocytes = test: Hepatocyte elimination of parent compound
hind paw incision pain = test: Rat hind paw incision pain model, SC dosing, von Frey testing (Example 2); format: in vivo; details: for effect on pain threshold (von Frey), day 1 and day 5 dosing: SC 3x per day for 5 days, XT-203 28 or 30 mg/kg, (+)-NTX data not shown
Experimental: Rats were housed in temperature (23+/−3° C.) and light (12 hour:12 hour, light:dark cycle; lights on at 0700) controlled rooms with standard rodent chow and water available ad libitum.
Von Frey Test for Mechanical Allodynia: Rats received at least three 60 min habituations to the test environment prior to behavioral testing. Response thresholds to calibrated light pressure stimuli applied to the plantar surface of the paws was measured using the von Frey test. […] All testing was conducted blind with respect to group assignment. The behavioral responses were used to calculate the threshold, by fitting a Gaussian integral psychometric function using a maximum-likelihood fitting method, as described in detail previously (Id.). Allodynia was assessed pre- and post-drug delivery.
Behavior testing for pain responses by von Frey testing was used to establish pain thresholds in the affected hind paw. Because dosage was 3×/day, behavior testing was performed after the first and second dose of day 1 dosing (1.1, 1.2) and after the first and second dose of day 5 dosing (5.1, 5.2). Testing sessions were performed 30 minutes after the dose was administered.

[4] = test system: off-target screening panel; test: Off-target inhibition screening (whole panel); details: 10 μM test concentration, hit = inhibition at or above the 50% level
From the text: In addition to the animal studies presented above in Examples 1-9, the results of in vitro testing of several of the compounds (i.e., XT-203, XT-204, and XT-206 through XT-217) are shown in Table 5 and Table 6. […]. Nine additional compounds had two or fewer off-target hits in the screening. […] These compounds spanned all of the tested N-modification classes. […]. Thus, the medicinal chemistry approach taken in this series of fluorinated compounds can yield low off-target activity and longer metabolic lifetime while preserving TLR4 antagonism. It is appreciated that further development of compounds in this class, using techniques known to those skilled in the art, may yield additional compounds with desirable pharmacologic and toxicologic characteristics.

## O=C1CC[C@]2(O)[C@@H]3Cc4ccc(O)c5c4[C@]2(CCN3CC2CC2)[C@@H]1O5 [(+)-naltrexone, reference compound]
[1]
  adverse effects during observation: No significant adverse effects
[2]
  inhibition of NO production from LPS-stimulated BV2 cells: good viability and inhibition
[2]; LPS (200 ng/ml), 24 h, BV-2 cells, Table 3
  IC50: 50 to 60 µM
[2]; Table 6, unit inferred, footnote: Indicator of TL4 antagonism
  IC50: 50 to 60 µM
[3]
  effect on PWT in mouse fracture pain model: increased the PWT
  adverse effects during observation: No significant adverse effects
Mouse hepatocytes; mouse hepatocytes, compared with XT-203
  glucuronidation of parent compound: significantly higher glucuronidation
Hind paw incision pain
  effect on pain threshold (von Frey), day 1 and day 5 dosing: not effective
[4]
  off-target hits in the screening: none
[4]; listed as XT-202
  off-target hits in the screening: NONE

## COc1ccc2c3c1O[C@@H]1C(F)CCC4[C@H](C2)N(CC2CC2)CC[C@]341 (some centres unmarked) [XT-203]
[1]
  adverse effects during observation: No significant adverse effects
[2]
  inhibition of NO production from LPS-stimulated BV2 cells: good viability and inhibition
[2]; Mus musculus, Microglia, Table 6, unit inferred, footnote: Indicator of TL4 antagonism
  IC50: 30 µM
[2]; Mus musculus, LPS (200 ng/ml), 24 h, BV-2 cells, Table 3
  IC50: 30 to 50 µM
[3]
  effect on PWT in mouse fracture pain model: increased the PWT
  adverse effects during observation: No significant adverse effects
Mouse hepatocytes; cultured mouse hepatocytes
  Parent compound hepatocyte elimination half-life, Mouse: 26.28 min
Hind paw incision pain
  effect on pain threshold (von Frey), day 1 and day 5 dosing: substantial effects
Hind paw incision pain; XT-203 28 or 30 mg/kg SC 3x per day
  effect during day 5 testing compared with morphine 3 mg/kg: matching the response to morphine
[4]
  off-target hits in the screening: activity at two targets
